pIC50: −log10 of the molar value. Where a SMILES comes first, the peptide text is derived from it. Bridges are numbered along the chain shown (N, C = ends). [ ]: non-standard residue; d: D form. The star is where a group is joined. ξ: configuration not given here. Phe(4-COOH) = N[C@@H](Cc1ccc(C(=O)O)cc1)C(=O)O; Bip = N[C@@H](Cc1ccc(-c2ccccc2)cc1)C(=O)O; Phe(3-Me) = Cc1cccc(C[C@H](N)C(=O)O)c1; Val(3-OH) = CC(C)(O)[C@H](N)C(=O)O; 4Pal = N[C@@H](Cc1ccncc1)C(=O)O; Cha = N[C@@H](CC1CCCCC1)C(=O)O; Cit = NC(=O)NCCC[C@H](N)C(=O)O; Gly(cPr) = N[C@H](C(=O)O)C1CC1; Ile(3ξ) = CCC(C)[C@H](N)C(=O)O; Thr(3ξ) = CC(O)[C@H](N)C(=O)O; 12Ado = NCCCCCCCCCCCC(=O)O; Carboxymethyl = O=C(O)C*; NMeA = CN[C@@H](C)C(=O)O; Orn = NCCC[C@H](N)C(=O)O; Aun = NCCCCCCCCCCC(=O)O; Dab = NCC[C@H](N)C(=O)O; Dap = NC[C@H](N)C(=O)O; AEEA = NCCOCCOCC(=O)O; Sar = CNCC(=O)O
The compounds below were run against T1, PD-1/PD-L1 interaction (PE-labeled human PD-L1-Ig binding to Jurkat cell line over-expressing human PD-1) (Homo sapiens, UniProt Q15116) (assay: Jurkat-PD-1 Cell Binding High-Content Screening Assay (CBA)). Conditions: Jurkat-hPD-1 cells, PE-labeled PD-L1-Ig 20 nM final; read-out: Jurkat HPD1 PDL1 IC50.
T1 construct: expressed in transfected cells; host or cells: Jurkat
T1 sequence (Q15116 25-288): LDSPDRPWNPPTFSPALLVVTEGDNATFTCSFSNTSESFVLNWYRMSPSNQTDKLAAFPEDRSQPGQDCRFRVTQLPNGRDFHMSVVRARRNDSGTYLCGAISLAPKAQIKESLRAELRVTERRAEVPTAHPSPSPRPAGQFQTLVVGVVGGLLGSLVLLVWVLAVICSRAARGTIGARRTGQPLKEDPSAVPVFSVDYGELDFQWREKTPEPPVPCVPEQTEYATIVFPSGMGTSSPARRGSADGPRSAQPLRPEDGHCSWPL
Outline: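 Read-out: high-content imaging of cell-bound PE fluorescence, with Hoechst 33342 nuclear counterstain after paraformaldehyde fixation. Before labeled ligand (20 nM final, 1 h) was added, compound sat on the cells for 2 h at 37 °C in DMEM/10% FCS.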

pIC50	Structure (SMILES)
8.31	CC(=O)NCCCC[C@@H]1NC(=O)[C@H](Cc2ccc(-c3ccccc3)cc2)NC(=O)[C@H](CC(C)C)NC(=O)[C@H](Cc2cccc(C)c2)NC(=O)[C@H](CC(=O)O)NC(=O)[C@H](Cc2ccc(C(=O)O)cc2)NC(=O)[C@H](Cc2ccc(OCC(=O)O)cc2)NC(=O)CSC[C@@H](C(=O)NCCCCCCCCCCC(=O)O)NC(=O)[C@H](CCCNC(N)=O)NC(=O)[C@H](C(C)C)NC(=O)[C@H](CC2CCCCC2)NC(=O)[C@H](CCN)NC(=O)[C@@H](CC(C)C)NC(=O)[C@H](C)N(C)C1=O [Example 2247] ({CH2CO}-Y(Carboxymethyl)[Phe(4-COOH)]D[Phe(3-Me)]L[Bip]K(Ac)[NMeA][dL][Dab][Cha]V[Cit]C[Aun]-OH; thioether N-14)
6.55	CC(=O)NCCCC[C@@H]1NC(=O)[C@H](C(C)C)NC(=O)[C@H](CC2CCCCC2)NC(=O)[C@H](CCN)NC(=O)[C@@H](CC(C)C)NC(=O)[C@H](C)N(C)C(=O)[C@H](Cc2ccc(O)cc2)NC(=O)[C@H](Cc2ccc(-c3ccccc3)cc2)NC(=O)[C@H](C(C)C)NC(=O)[C@H](Cc2cccc(C)c2)NC(=O)[C@H](CC(=O)O)NC(=O)[C@H](Cc2ccc(OCC(=O)O)cc2)NC(=O)[C@H](Cc2ccc(O)cc2)NC(=O)CSC[C@@H](C(=O)N(C)CC(=O)NCCCCCCCCCCC(=O)O)NC1=O [Example 2275] ({CH2CO}-YY(Carboxymethyl)D[Phe(3-Me)]V[Bip]Y[NMeA][dL][Dab][Cha]VK(Ac)C[Sar][Aun]-OH; thioether N-14)
6.97	Cc1cccc(C[C@@H]2NC(=O)[C@H](CC(=O)O)NC(=O)[C@H](Cc3ccc(C(=O)O)cc3)NC(=O)[C@H](C(C)O)NC(=O)CSC[C@@H](C(=O)N[C@@H](CCCN)C(=O)N[C@@H](CO)C(=O)NCCCCCCCCCCCC(=O)O)NC(=O)[C@H](CO)NC(=O)[C@H](CCCCN)NC(=O)[C@H](CC3CCCCC3)NC(=O)[C@H](CCN)NC(=O)[C@@H](CC(C)C)NC(=O)[C@H](C)N(C)C(=O)[C@H](Cc3ccc(OCC(=O)O)cc3)NC(=O)[C@H](Cc3ccc(-c4ccccc4)cc3)NC(=O)[C@H](Cc3ccc(OCC(=O)O)cc3)NC2=O)c1 (stereo partly drawn) [Example 2424] ({CH2CO}-[Thr(3ξ)][Phe(4-COOH)]D[Phe(3-Me)]Y(Carboxymethyl)[Bip]Y(Carboxymethyl)[NMeA][dL][Dab][Cha]KSC[Orn]S[12Ado]-OH; thioether N-14)

The remaining lines, values behind:

Structure (SMILES)	pIC50
Cc1cccc(C[C@@H]2NC(=O)[C@H](CC(=O)O)NC(=O)[C@H](Cc3ccc(OCC(=O)O)cc3)NC(=O)[C@H]([C@@H](C)O)NC(=O)CSC[C@@H](C(=O)N[C@@H](CC(N)=O)C(=O)NCCCCCCCCCCC(=O)O)NC(=O)[C@H](CCC(=O)O)NC(=O)[C@H](C(C)(C)O)NC(=O)[C@H](CC3CCCCC3)NC(=O)[C@H](CCN)NC(=O)[C@@H](CC(C)C)NC(=O)[C@H](C)N(C)C(=O)[C@H](Cc3ccc(OCC(=O)O)cc3)NC(=O)[C@H](Cc3ccc(-c4ccccc4)cc3)NC(=O)[C@H](Cc3ccc(OCC(=O)O)cc3)NC2=O)c1 [Example 1419] ({CH2CO}-TY(Carboxymethyl)D[Phe(3-Me)]Y(Carboxymethyl)[Bip]Y(Carboxymethyl)[NMeA][dL][Dab][Cha][Val(3-OH)]ECN[Aun]-OH; thioether N-14)	6.73
CCC(C)[C@@H]1NC(=O)[C@H](Cc2ccc(-c3ccccc3)cc2)NC(=O)[C@H](CC(C)C)NC(=O)[C@H](Cc2c[nH]c3ccccc23)NC(=O)[C@H](CC(=O)O)NC(=O)[C@H](Cc2ccc(C(=O)O)cc2)NC(=O)[C@H](Cc2ccc(OCC(=O)O)cc2)NC(=O)CSC[C@@H](C(=O)N[C@H](CC(N)=O)C(=O)NCCOCCOCC(=O)NCCCCCCCCCCC(=O)O)NC(=O)[C@H](CO)NC(=O)[C@H](C(C)C)NC(=O)[C@H](CC2CCCCC2)NC(=O)[C@H](CCN)NC(=O)[C@@H](CC(C)C)NC(=O)[C@H](C)N(C)C1=O (stereo partly drawn) [Example 2065] ({CH2CO}-Y(Carboxymethyl)[Phe(4-COOH)]DWL[Bip][Ile(3ξ)][NMeA][dL][Dab][Cha]VSC[dN][AEEA][Aun]-OH; thioether N-14)	7.76
CC(C)C[C@@H]1NC(=O)[C@H](Cc2c[nH]c3ccccc23)NC(=O)[C@H](CC(=O)O)NC(=O)[C@H](Cc2ccc(O)cc2)NC(=O)[C@H](Cc2ccncc2)NC(=O)CSC[C@@H](C(=O)N[C@@H](CCCN)C(=O)NCCOCCOCC(=O)NCCCCCCCCCCC(=O)O)NC(=O)[C@H](CCCN)NC(=O)[C@H](C(C)C)NC(=O)[C@H](CC2CCCCC2)NC(=O)[C@H](CCN)NC(=O)[C@@H](CC(C)C)NC(=O)[C@H](C)N(C)C(=O)[C@H](C(C)C)NC(=O)[C@H](Cc2ccc(-c3ccccc3)cc2)NC1=O [Example 2161] ({CH2CO}-[4Pal]YDWL[Bip]V[NMeA][dL][Dab][Cha]V[Orn]C[Orn][AEEA][Aun]-OH; thioether N-14)	6.91
Cc1cccc(C[C@@H]2NC(=O)[C@H](CC(=O)O)NC(=O)[C@H](Cc3ccc(O)cc3)NC(=O)[C@H](Cc3ccncc3)NC(=O)CSC[C@@H](C(=O)N[C@@H](CCN)C(=O)NCCCCCCCCCCC(=O)O)NC(=O)[C@H](CCCN)NC(=O)[C@H](C(C)C)NC(=O)[C@H](CC(C)C)NC(=O)[C@H](CCN)NC(=O)[C@@H](C)NC(=O)[C@H](C)N(C)C(=O)[C@H](C(C)C)NC(=O)[C@H](Cc3ccc(-c4ccccc4)cc3)NC(=O)[C@H](CC(C)C)NC2=O)c1 [Example 2201] ({CH2CO}-[4Pal]YD[Phe(3-Me)]L[Bip]V[NMeA][dA][Dab]LV[Orn]C[Dab][Aun]-OH; thioether N-14)	7.82
Cc1cccc(C[C@@H]2NC(=O)[C@H](CC(=O)O)NC(=O)[C@H](Cc3ccc(OCC(=O)O)cc3)NC(=O)[C@H]([C@@H](C)O)NC(=O)CSC[C@@H](C(=O)N[C@H](CC(N)=O)C(=O)NCCCCCCCCCCC(=O)O)NC(=O)[C@H](CCC(=O)O)NC(=O)[C@H](C(C)(C)O)NC(=O)[C@H](CC3CCCCC3)NC(=O)[C@H](CCN)NC(=O)[C@@H](CC(C)C)NC(=O)[C@H](C)N(C)C(=O)[C@H](Cc3ccc(OCC(=O)O)cc3)NC(=O)[C@H](Cc3ccc(-c4ccccc4)cc3)NC(=O)[C@H](Cc3ccc(OCC(=O)O)cc3)NC2=O)c1 [Example 1420] ({CH2CO}-TY(Carboxymethyl)D[Phe(3-Me)]Y(Carboxymethyl)[Bip]Y(Carboxymethyl)[NMeA][dL][Dab][Cha][Val(3-OH)]EC[dN][Aun]-OH; thioether N-14)	6.94
CCC(C)[C@@H]1NC(=O)[C@H](Cc2ccc(-c3ccccc3)cc2)NC(=O)[C@H](CC(C)C)NC(=O)[C@H](Cc2c[nH]c3ccccc23)NC(=O)[C@H](CC(=O)O)NC(=O)[C@H](Cc2ccc(C(=O)O)cc2)NC(=O)[C@H](Cc2ccc(OCC(=O)O)cc2)NC(=O)CSC[C@@H](C(=O)N[C@@H](CC(N)=O)C(=O)NCCOCCOCC(=O)N[C@@H](CN)C(=O)NCCCCCCCCCCC(=O)O)NC(=O)[C@H](CO)NC(=O)[C@H](C(C)C)NC(=O)[C@H](CC2CCCCC2)NC(=O)[C@H](CCN)NC(=O)[C@@H](CC(C)C)NC(=O)[C@H](C)N(C)C1=O (stereo partly drawn) [Example 2075] ({CH2CO}-Y(Carboxymethyl)[Phe(4-COOH)]DWL[Bip][Ile(3ξ)][NMeA][dL][Dab][Cha]VSCN[AEEA][Dap][Aun]-OH; thioether N-14)	7.81
Cc1cccc(C[C@@H]2NC(=O)[C@H](CC(=O)O)NC(=O)[C@H](Cc3ccc(C(=O)O)cc3)NC(=O)[C@H](CCN)NC(=O)CSC[C@@H](C(=O)N[C@@H](CCN)C(=O)NCCCCCCCCCCC(=O)O)NC(=O)[C@H](CO)NC(=O)[C@H](C(C)(C)O)NC(=O)[C@H](CC3CCCCC3)NC(=O)[C@H](CCN)NC(=O)[C@@H](CC(C)C)NC(=O)[C@H](C)N(C)C(=O)[C@H](Cc3ccc(OCC(=O)O)cc3)NC(=O)[C@H](Cc3ccc(-c4ccccc4)cc3)NC(=O)[C@H](C3CC3)NC2=O)c1 [Example 1295] ({CH2CO}-[Dab][Phe(4-COOH)]D[Phe(3-Me)][Gly(cPr)][Bip]Y(Carboxymethyl)[NMeA][dL][Dab][Cha][Val(3-OH)]SC[Dab][Aun]-OH; thioether N-14)	7.95
CC(C)C[C@@H]1NC(=O)[C@H](Cc2c[nH]c3ccccc23)NC(=O)[C@H](CC(=O)O)NC(=O)[C@H](Cc2ccc(C(=O)O)cc2)NC(=O)[C@H](Cc2ccc(OCC(=O)O)cc2)NC(=O)CSC[C@@H](C(=O)N[C@@H](CCN)C(=O)NCCOCCOCC(=O)NCCCCCCCCCCC(=O)O)NC(=O)[C@H](CCCCN)NC(=O)[C@H](C(C)C)NC(=O)[C@H](CC2CCCCC2)NC(=O)[C@H](CCN)NC(=O)[C@@H](CC(C)C)NC(=O)[C@H](C)N(C)C(=O)[C@H](C(C)C)NC(=O)[C@H](Cc2ccc(-c3ccccc3)cc2)NC1=O [Example 2192] ({CH2CO}-Y(Carboxymethyl)[Phe(4-COOH)]DWL[Bip]V[NMeA][dL][Dab][Cha]VKC[Dab][AEEA][Aun]-OH; thioether N-14)	8.12
CCC(C)[C@@H]1NC(=O)[C@H](Cc2ccc(-c3ccccc3)cc2)NC(=O)[C@H](CC(C)C)NC(=O)[C@H](Cc2c[nH]c3ccccc23)NC(=O)[C@H](CC(=O)O)NC(=O)[C@H](Cc2ccc(O)cc2)NC(=O)[C@H](Cc2ccncc2)NC(=O)CSC[C@@H](C(=O)N[C@@H](CCCN)C(=O)NCCOCCOCC(=O)NCCCCCCCCCCC(=O)O)NC(=O)[C@H](CO)NC(=O)[C@H](C(C)C)NC(=O)[C@H](CC2CCCCC2)NC(=O)[C@H](CCN)NC(=O)[C@@H](CC(C)C)NC(=O)[C@H](C)N(C)C1=O (stereo partly drawn) [Example 2073] ({CH2CO}-[4Pal]YDWL[Bip][Ile(3ξ)][NMeA][dL][Dab][Cha]VSC[Orn][AEEA][Aun]-OH; thioether N-14)	7.36

Same assay, conditions: PE-labeled PD-L1-Ig 20 nM final, Jurkat-hPD-1 cells; read-out: Jurkat HPD1 PDL1 IC50

pIC50	Structure (SMILES)
7.73	Cc1cccc(C[C@@H]2NC(=O)[C@H](CC(=O)O)NC(=O)[C@H](Cc3ccc(C(=O)O)cc3)NC(=O)[C@H](CCN)NC(=O)CSC[C@@H](C(=O)N[C@@H](CCN)C(=O)NCCOCCOCC(=O)NCCCCCCCCCCC(=O)O)NC(=O)[C@H](CCC(=O)O)NC(=O)[C@H](C(C)O)NC(=O)[C@H](CC3CCCCC3)NC(=O)[C@H](CCN)NC(=O)[C@@H](CC(C)C)NC(=O)[C@H](C)N(C)C(=O)[C@H](Cc3ccc(C(=O)O)cc3)NC(=O)[C@H](Cc3ccc(-c4ccccc4)cc3)NC(=O)[C@H](Cc3ccc(C(=O)O)cc3)NC2=O)c1 (stereo partly drawn) [Example 2552] ({CH2CO}-[Dab][Phe(4-COOH)]D[Phe(3-Me)][Phe(4-COOH)][Bip][Phe(4-COOH)][NMeA][dL][Dab][Cha][Thr(3ξ)]EC[Dab][AEEA][Aun]-OH; thioether N-14)
